How the values were obtained:
Type in all cases: physicochemical
[1] = thermodynamic stability (DSC, solubility tests and other experiments); settings: compared with modification A
Protocol: (§1) The resulting change of particle sizes could lead to a change of the stability of the formulated suspension.
Characteristic for modification C is also the thermogram in differential scanning calorimetry (“DSC”) (see FIG. 3). It has an endothermic peak typically in the range from 130° C. to 142° C., but this will depend on purity. For example, crystal modification C in pure form has typically a peak temperature of 141° C. and an endothermic signal typically around 83 J/g. This thermogram is characteristically different from the thermograms of modifications A and B. Modification A has an endothermic peak at about 112° C. and an endothermic signal of 76; modification B has a peak at about 128° C. and a signal of 90 J/g (see PCT/EP2006/00898, FIGS. 5-6). All measurements were carried out on a Metier Toledo 820 DSC in a closed, but not sealed, pan with a heating rate of 10 K/minute. The typical sample quantity is about 5 mg.

[2] = water solubility; settings: over relevant temperature ranges; compared with modification A
Source text: as §1

[3] = storage stability in aqueous suspensions and in solid form under humid conditions; settings: aqueous suspensions (such as SC-formulations) and storage in solid form under humid conditions; compared with amorphous material or modification I

| SMILES | thermodynamic stability [1] | water solubility [2] | storage stability [3] |
| --- | --- | --- | --- |
| CC(C)C1C2CCC1c1c(NC(=O)c3cn(C)nc3C(F)F)cccc12 (mixture of isomers) [modification C, racemic syn-3-difluoromethyl-1-methyl-1H-pyrazole-4-carboxylic acid (9-isopropyl-1,2,3,4-tetrahydro-1,4-methano-naphthalen-5-yl)-amide] | substantially better thermodynamic stability than modification A | lower than the water solubility of modification A | – |
| CC(C)C1C2CCC1c1c(NC(=O)c3cn(C)nc3C(F)F)cccc12 (mixture of isomers) [monohydrate in form A, racemic anti-3-difluoromethyl-1-methyl-1H-pyrazole-4-carboxylic acid (9-isopropyl-1,2,3,4-tetrahydro-1,4-methano-naphthalen-5-yl)-amide] | – | – | much more stable under those circumstances compared with amorphous material or with the modification I |

Reference: US8580835B2, “Solid forms of a microbiocide” (Syngenta Crop Protection, LLC, priority 2007, dated 2013)
